In experiment [1] the target is human activated kallikrein enzyme (Homo sapiens, UniProt P03952). The experiment in a line: Plasma kallikrein inhibition, fluorogenic PFR-AMC substrate, 500 pM activated kallikrein format. Format: biochemical. The settings on record: 500 pM activated kallikrein, 300 uM PFR-AMC, 30 min preincubation, 10 min reaction; read-out: Primary Dose Response Assay: Average EC50. In a few lines:
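Enzyme at 500 pM preincubated 30 min RT with inhibitors in 20 mM Tris pH 7.5, 1 mM EDTA, 150 mM NaCl, 0.1% PEG-400, 0.1% Triton X-100. Reaction started with 300 uM PFR-AMC, run 10 min RT; fluorescence read at 460 nm emission, 380 nm excitation. EC50 reported in ranges.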

In a further experiment the target is T1, plasma kallikrein (Homo sapiens, UniProt P03952).
T1 construct: from tissue
T1 sequence (P03952 391-638 limits assumed): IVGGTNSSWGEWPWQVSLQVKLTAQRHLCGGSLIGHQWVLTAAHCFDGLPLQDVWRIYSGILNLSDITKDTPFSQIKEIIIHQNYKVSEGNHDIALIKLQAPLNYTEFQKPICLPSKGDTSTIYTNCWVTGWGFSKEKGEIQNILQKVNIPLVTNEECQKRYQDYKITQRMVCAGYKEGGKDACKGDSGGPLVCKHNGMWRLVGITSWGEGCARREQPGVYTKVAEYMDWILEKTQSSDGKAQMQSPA
T1 sequence (P03952 20-390 partner limits assumed): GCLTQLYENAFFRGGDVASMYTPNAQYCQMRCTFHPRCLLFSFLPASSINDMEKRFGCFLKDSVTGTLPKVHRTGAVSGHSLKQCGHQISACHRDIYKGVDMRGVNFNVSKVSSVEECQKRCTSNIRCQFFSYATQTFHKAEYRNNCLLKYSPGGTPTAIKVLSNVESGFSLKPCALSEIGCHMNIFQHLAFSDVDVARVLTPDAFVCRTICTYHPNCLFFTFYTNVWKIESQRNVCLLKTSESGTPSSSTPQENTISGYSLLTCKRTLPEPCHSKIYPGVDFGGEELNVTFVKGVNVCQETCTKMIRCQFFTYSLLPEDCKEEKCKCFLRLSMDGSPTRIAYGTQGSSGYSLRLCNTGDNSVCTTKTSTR
The experiment in a line: Neat human plasma assay, FXIIa contact pathway-activated, PFR-AMC substrate. The experiment is classed as biochemical. The settings on record: citrated human plasma 78% final, 10 nM human FXIIa, 100 μM PFR-AMC; read-out: Human Plasma Assay: IC90. The procedure, abridged:
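Citrated human plasma (78% final) with compound, contact-activated by 10 nM human FXIIa in pKal buffer pH 7.5, with 100 μM PFR-AMC. Fluorescence (360/480 nm) followed 5 min at room temperature; rates versus concentration fitted by 4-parameter equation for IC50/IC90.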

Sequence of human activated kallikrein enzyme (P03952 391-638 limits assumed): as the sequence (P03952 391-638 limits assumed) above
Sequence of human activated kallikrein enzyme (P03952 20-390 partner limits assumed): as the sequence (P03952 20-390 partner limits assumed) above

One may read the EC50 as the concentration needed to bring the measured effect to its halfway point. Broadly, the IC90 is the point of the concentration-response curve where the effect stands at 90%. For `Cc1ccnc([C@H]2C[C@@H]2C(=O)Nc2cc(NCc3cn4cc(C5CC5)ccc4n3)ccn2)n1` (racemic) [Example 414, rac-(1S*,2S*)-N-(4-(((6-cyclopropylimidazo[1,2-a]pyridin-2-yl)methyl)amino)pyridin-2-yl)-2-(4-methylpyrimidin-2-yl)cyclopropane-1-carboxamide], in experiment [1], the EC50 is less than 0.001 µM. The 90% effect concentration (IC90) at plasma kallikrein was 10 to 48 µM.

As to `O=C(Nc1cc(NCc2cn3cc(C4CC4)cc(C(O)C4CNC4)c3n2)ccn1)[C@H]1C[C@@H]1c1cccc(Cl)c1` (stereo partly drawn) [Example 135, (1S,2S)—N-(4-(((8-(-azetidin-3-yl(hydroxy)methyl)-6-cyclopropylimidazo[1,2-a]pyridin-2-yl)methyl)amino)pyridin-2-yl)-2-(3-chlorophenyl)cyclopropane-1-carboxamide], in experiment [1], the 50% effective concentration (EC50) is less than 0.001 µM. Besides, at plasma kallikrein, the IC90 is less than 0.4 µM.

For `Cc1ccnc([C@H]2C[C@@H]2C(=O)Nc2cc(NCc3cn4cc(C5CC5)cc(N5CC(=O)N(CC(F)(F)F)C5=O)c4n3)ncn2)n1` (racemic) [Example 388, rac-(1S*,2S*)-N-(6-(((6-cyclopropyl-8-(2,4-dioxo-3-(2,2,2-trifluoroethyl)imidazolidin-1-yl)imidazo[1,2-a]pyridin-2-yl)methyl)amino)pyrimidin-4-yl)-2-(4-methylpyrimidin-2-yl)cyclopropane-1-carboxamide], the concentration giving a half-maximal response (EC50) in experiment [1] was less than 0.001 µM. At plasma kallikrein, the IC90 is 0.4 to 1.5 µM.

On to `CN1CCN(c2cc(C3CC3)cn3cc(CNc4ccnc(NC(=O)[C@H]5C[C@@H]5c5cccc(Cl)c5)c4)nc23)C(=O)C1` [Example 127, (1S,2S)-2-(3-chlorophenyl)-N-(4-(((6-cyclopropyl-8-(4-methyl-2-oxopiperazin-1-yl)imidazo[1,2-a]pyridin-2-yl)methyl)amino)pyridin-2-yl)cyclopropane-1-carboxamide], for which the EC50 in experiment [1] is less than 0.001 µM. Besides, the IC90 on plasma kallikrein is less than 0.4 µM.

On to `CN1CC(F)(c2cc(C3CC3)cn3cc(CNc4ccnc(NC(=O)[C@H]5C[C@@H]5c5cccc(Cl)c5)c4)nc23)C1` [Example I-227, (1S,2S)-2-(3-chlorophenyl)-N-(4-(((6-cyclopropyl-8-(3-fluoro-1-methylazetidin-3-yl)imidazo[1,2-a]pyridin-2-yl)methyl)amino)pyridin-2-yl)cyclopropane-1-carboxamide], for which the EC50 in experiment [1] is less than 0.001 µM. Further, the 90% effect concentration (IC90) at plasma kallikrein is less than 0.4 µM.

`COCC1CN(c2cc(C3CC3)cn3cc(CNc4cc(NC(=O)[C@H]5C[C@@H]5c5cccc(Cl)c5)ncn4)nc23)CCN1C` (stereo partly drawn) [Example I-6, (1S,2S)-2-(3-chlorophenyl)-N-(6-(((6-cyclopropyl-8-(3-(methoxymethyl)-4-methylpiperazin-1-yl)imidazo[1,2-a]pyridin-2-yl)methyl)amino)pyrimidin-4-yl)cyclopropane-1-carboxamide]: the EC50 in experiment [1] was 0.001 to 0.01 µM. In addition, the IC90 on plasma kallikrein fell in the range of 1.5 to 10 µM.

With `Cc1ccnc([C@H]2C[C@@H]2C(=O)Nc2cc(NC(C)c3cn4cc(C5CC5)cc(N5CCN(C)C5=O)c4n3)nc(C)n2)n1` (stereo partly drawn) [Example 364, (1S,2S)-N-(6-((1-(6-cyclopropyl-8-(3-methyl-2-oxoimidazolidin-1-yl)imidazo[1,2-a]pyridin-2-yl)ethyl)amino)-2-methylpyrimidin-4-yl)-2-(4-methylpyrimidin-2-yl)cyclopropane-1-carboxamide], in experiment [1], the EC50 is less than 0.001 µM. Further, the concentration for an effect of 90% (IC90) at plasma kallikrein lay within 0.4 to 1.5 µM.

Regarding `Cc1ccnc([C@H]2C[C@@H]2C(=O)Nc2cc(SCc3cn4cc(C5CC5)cc(N5CC(=O)N(C)C5=O)c4n3)nc(C)n2)n1` [Example I-638, (1S,2S)—N-(6-(((6-cyclopropyl-8-(3-methyl-2,4-dioxoimidazolidin-1-yl)imidazo[1,2-a]pyridin-2-yl)methyl)thio)-2-methylpyrimidin-4-yl)-2-(4-methylpyrimidin-2-yl)cyclopropane-1-carboxamide], in experiment [1], the concentration giving a half-maximal response (EC50) is less than 0.001 µM. Moreover, the IC90 on plasma kallikrein was 0.4 to 1.5 µM.

In the case of `O=C(Nc1cc(NCc2cn3cc(C4CC4)cc(N4CCN(CCO)CC4)c3n2)ccn1)[C@H]1C[C@@H]1c1cccc(Cl)c1` [Example 603, (1S,2S)-2-(3-chlorophenyl)-N-(4-(((6-cyclopropyl-8-(4-(2-hydroxyethyl)piperazin-1-yl)imidazo[1,2-a]pyridin-2-yl)methyl)amino)pyridin-2-yl)cyclopropane-1-carboxamide], the concentration for a half-maximal effect (EC50) in experiment [1] is less than 0.001 µM. Moreover, the IC90 on plasma kallikrein is less than 0.4 µM.

As to `CN1CC2(C1)CN(c1cc(C3CC3)cn3cc(CNc4ccnc(NC(=O)[C@H]5C[C@@H]5c5cccc(Cl)c5)c4)nc13)C2` [Example 140, (1S,2S)-2-(3-chlorophenyl)-N-(4-(((6-cyclopropyl-8-(6-methyl-2,6-diazaspiro[3.3]heptan-2-yl)imidazo[1,2-a]pyridin-2-yl)methyl)amino)pyridin-2-yl)cyclopropane-1-carboxamide], the EC50 in experiment [1] was less than 0.001 µM. For the same compound, at plasma kallikrein, the concentration for an effect of 90% (IC90) lay within 0.4 to 1.5 µM.

As for `O=C(Nc1cc(NCc2cn3cc(C4CC4)cc(N4CCNC(C(F)(F)F)C4)c3n2)ccn1)[C@H]1C[C@@H]1c1cccc(Cl)c1` (stereo partly drawn) [Example I-21, (1S,2S)-2-(3-chlorophenyl)-N-(4-(((6-cyclopropyl-8-(3-(trifluoromethyl)piperazin-1-yl)imidazo[1,2-a]pyridin-2-yl)methyl)amino)pyridin-2-yl)cyclopropane-1-carboxamide], the EC50 in experiment [1] lay within 0.001 to 0.01 µM. Further, the IC90 on plasma kallikrein is 1.5 to 10 µM.

In the case of `O=C(Nc1cc(NCc2cn3cc(C4CC4)cc(N4CC(=O)N(CC(F)(F)F)C4=O)c3n2)ccn1)[C@H]1C[C@@H]1c1cccc(Cl)c1` [Example 512, (1S,2S)-2-(3-chlorophenyl)-N-(4-(((6-cyclopropyl-8-(2,4-dioxo-3-(2,2,2-trifluoroethyl)imidazolidin-1-yl)imidazo[1,2-a]pyridin-2-yl)methyl)amino)pyridin-2-yl)cyclopropane-1-carboxamide], in experiment [1], the EC50 was in the range of 0.001 to 0.01 µM. Further, the IC90 at plasma kallikrein is 1.5 to 10 µM.

In the case of `Cc1ccnc([C@H]2C[C@@H]2C(=O)Nc2cc(NC(C)c3cn4cc(Cl)cc(N5CC(=O)N(C)C5=O)c4n3)nc(C)n2)n1` (stereo partly drawn) [Example 356, (1S,2S)-N-(6-((1-(6-chloro-8-(3-methyl-2,4-dioxoimidazolidin-1-yl)imidazo[1,2-a]pyridin-2-yl)ethyl)amino)-2-methylpyrimidin-4-yl)-2-(4-methylpyrimidin-2-yl)cyclopropane-1-carboxamide], the EC50 in experiment [1] is less than 0.001 µM. Besides, on plasma kallikrein, the IC90 was 1.5 to 10 µM.

For the compound `O=C(Nc1cc(NCc2cn3cc(C4CC4)cc(N4CCN5CC(O)CC5C4)c3n2)ccn1)[C@H]1C[C@@H]1c1cccc(Cl)c1` (stereo partly drawn) [Example I-228, (1S,2S)-2-(3-chlorophenyl)-N-(4-(((6-cyclopropyl-8-(7-hydroxyhexahydropyrrolo[1,2-a]pyrazin-2(1H)-yl)imidazo[1,2-a]pyridin-2-yl)methyl)amino)pyridin-2-yl)cyclopropane-1-carboxamide], the EC50 in experiment [1] was less than 0.001 µM. In addition, the IC90 on plasma kallikrein was 0.4 to 1.5 µM.

In the case of `Cc1ccnc([C@H]2C[C@@H]2C(=O)Nc2ncc(C(F)(F)F)c(OCc3cn4cc(C5CC5)cc(N5CC(=O)N(C)C5=O)c4n3)n2)n1` (racemic) [Example 628, rac-(1S*,2S*)—N-(4-((6-cyclopropyl-8-(3-methyl-2,4-dioxoimidazolidin-1-yl)imidazo[1,2-a]pyridin-2-yl)methoxy)-5-(trifluoromethyl)pyrimidin-2-yl)-2-(4-methylpyrimidin-2-yl)cyclopropane-1-carboxamide], in experiment [1], the EC50 was less than 0.001 µM. Besides, the IC90 at plasma kallikrein is 0.4 to 1.5 µM.

For the origin of these results see patent publication US20240228488A1 (TAKEDA PHARMACEUTICAL COMPANY LIMITED, priority 2021, published 2024).
